Results as given in ChEMBL document CHEMBL3608305, “Synergistic activation of quorum sensing in Vibrio harveyi” (Bioorg Med Chem Lett, 2015).
Calls of active or inactive are those of the source. The rule behind the calls is not given here.

Columns and labels:
Vibrio harveyi = assay: Toxicity in Vibrio harveyi MM32 at >5 uM; format: organism-based; details: in vivo
[1] = target: Autoinducer 2-binding periplasmic protein LuxP (Vibrio harveyi) (UniProt P54300); assay: Binding affinity to LuxP in Vibrio harveyi BB120 assessed as activation of quorum sensing system after 6 hrs by bioluminescence assay; details: Vibrio campbellii ATCC BAA-1116
[2] = target: Autoinducer 2-binding periplasmic protein LuxP (Vibrio harveyi) (UniProt P54300); assay: Binding affinity to LuxP in Vibrio harveyi MM32 assessed as activation of quorum sensing system at 1.5 to 100 uM after 5 hrs by bioluminescence assay in absence of exogenous synthetic DPD
[3] = target: Autoinducer 2-binding periplasmic protein LuxP (Vibrio harveyi, UniProt P54300); assay: (§1) Binding affinity to LuxP in Vibrio harveyi MM32 assessed as activation of quorum sensing system after 5 hrs by bioluminescence assay in presence of exogenous synthetic DPD
[4] = target: Autoinducer 2-binding periplasmic protein LuxP (Vibrio harveyi) (UniProt P54300); assay: as §1

Autoinducer 2-binding periplasmic protein LuxP (Vibrio harveyi), sequence (P54300 whole entry): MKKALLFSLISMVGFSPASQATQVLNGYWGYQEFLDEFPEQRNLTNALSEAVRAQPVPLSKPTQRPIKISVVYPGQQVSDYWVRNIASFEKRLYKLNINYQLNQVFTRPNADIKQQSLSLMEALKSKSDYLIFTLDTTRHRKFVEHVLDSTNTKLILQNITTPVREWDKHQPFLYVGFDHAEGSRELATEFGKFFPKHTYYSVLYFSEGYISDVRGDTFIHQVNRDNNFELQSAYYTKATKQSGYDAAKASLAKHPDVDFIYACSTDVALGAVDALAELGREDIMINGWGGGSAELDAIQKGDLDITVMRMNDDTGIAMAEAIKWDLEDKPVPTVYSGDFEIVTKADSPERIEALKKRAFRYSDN
Autoinducer 2-binding periplasmic protein LuxP, sequence (P54300 whole entry): as above

## O=C(Cc1ccc2ccccc2c1)C(=O)[C@@H](O)CO
Vibrio harveyi
  Activity: Toxic
[1]
  Activity: Dose-dependent effect
[2]
  Activity: inactive
[3]
  EC50: 20 µM
[4]
  Activity: Dose-dependent effect
